Target: T1, GCS (Canis lupus familiaris, UniProt A0A8I3MXG6)
T1 sequence (A0A8I3MXG6 1-394): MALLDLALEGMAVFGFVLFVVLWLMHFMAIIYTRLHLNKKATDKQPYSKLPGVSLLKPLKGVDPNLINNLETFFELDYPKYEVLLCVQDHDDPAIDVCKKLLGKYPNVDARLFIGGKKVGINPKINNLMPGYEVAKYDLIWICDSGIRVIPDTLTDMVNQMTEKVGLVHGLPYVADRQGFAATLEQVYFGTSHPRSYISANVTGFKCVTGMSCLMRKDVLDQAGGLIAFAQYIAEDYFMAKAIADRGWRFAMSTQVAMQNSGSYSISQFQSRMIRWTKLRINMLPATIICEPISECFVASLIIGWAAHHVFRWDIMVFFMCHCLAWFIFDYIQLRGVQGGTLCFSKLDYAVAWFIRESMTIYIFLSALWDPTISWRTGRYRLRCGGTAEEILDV
Assay: Assay 1: GCS Enzymatic Assay (MDCK cell lysate, C6-NBD-Ceramide, LC/MS)
Type: biochemical, canine
Conditions: Table 2; data marked by *
Summary of the method: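 LC/MS/MS measurement of glucosylceramide and NBD-ceramide after a 1 h, 37 °C reaction with 100 μM UDP-glucose and 10 μM C6-NBD-ceramide gave IC50s or percent inhibition.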

Question: How did the “% inhibition generated from Assay 1” value turn out when `O=C(N[C@H](CN1CCCC1)[C@H](O)c1ccc(OCC(F)(F)F)nc1)C(F)(F)CCc1ccc2cc(F)ccc2c1` [Compound 88, 2,2-difluoro-4-(6-fluoronaphthalen-2-yl)-N-((1R,2R)-1-hydroxy-3-(pyrrolidin-1-yl)-1-(6-(2,2,2-trifluoroethoxy)pyridin-3-yl)propan-2-yl)butanamide] was run?
Answer: The value was “A* (the compound had a % inhibition of a percent inhibition of greater than or equal to about 50%)”.

Question: For `O=C(N[C@H](CN1CCCC1)[C@H](O)c1ccc(OCC(F)(F)F)nc1)C(F)(F)C1Cc2ccc(Cl)cc2C1` (stereo partly drawn) [Compound 91, 2-(5-chloro-2,3-dihydro-1H-inden-2-yl)-2,2-difluoro-N-((1R,2R)-1-hydroxy-3-(pyrrolidin-1-yl)-1-(6-(2,2,2-trifluoroethoxy)pyridin-3-yl)propan-2-yl)acetamide], which “% inhibition generated from Assay 1” value is on record?
Answer: Its value is “B* (the compound had a % inhibition of greater than or equal to about 3% but less than about 50%)”.

Question: Which “% inhibition generated from Assay 1” value does the source give for `CC1CN(C[C@@H](NC(=O)C(F)(F)CCc2ccc3cc(F)ccc3c2)[C@H](O)c2ccc3c(c2)OCCO3)C1` [Compound 96, N-((1R,2R)-1-(2,3-dihydrobenzo[b][1,4]dioxin-6-yl)-1-hydroxy-3-(3-methylazetidin-1-yl)propan-2-yl)-2,2-difluoro-4-(6-fluoronaphthalen-2-yl)butanamide] here?
Answer: The value was “A* (the compound had a % inhibition of a percent inhibition of greater than or equal to about 50%)”.

Question: How did the “% inhibition generated from Assay 1” value turn out when `CC(C)Oc1ccc([C@@H](O)[C@@H](CN2CCCC2)NC(=O)C(F)(F)CCc2ccc3cc(F)ccc3c2)cn1` [Compound 97, 2,2-difluoro-4-(6-fluoronaphthalen-2-yl)-N-((1R,2R)-1-hydroxy-1-(6-isopropoxypyridin-3-yl)-3-(pyrrolidin-1-yl)propan-2-yl)butanamide] was run?
Answer: Its value is “A* (the compound had a % inhibition of a percent inhibition of greater than or equal to about 50%)”.

Question: For `CC1CN(C[C@@H](NC(=O)C(=O)c2cc3cc(Cl)ccc3o2)[C@H](O)c2ccc3c(c2)OCCO3)C1` [Compound 100, 2-(5-chlorobenzofuran-2-yl)-N-((1R,2R)-1-(2,3-dihydrobenzo[b][1,4]dioxin-6-yl)-1-hydroxy-3-(3-methylazetidin-1-yl)propan-2-yl)-2-oxoacetamide], which “% inhibition generated from Assay 1” value is on record?
Answer: The value was “B* (the compound had a % inhibition of greater than or equal to about 3% but less than about 50%)”.

Same assay, conditions: Table 2; data without asterisk; read-out: IC50 (nM) generated from Assay 1

Question: `O=C(N[C@H](CN1CCC1)[C@H](O)c1cc(F)c2c(c1)OCCO2)C(F)(F)c1cc2cc(Cl)ccc2o1` [Compound 83, N-((1R,2R)-3-(azetidin-1-yl)-1-(8-fluoro-2,3-dihydrobenzo[b][1,4]dioxin-6-yl)-1-hydroxypropan-2-yl)-2-(5-chlorobenzofuran-2-yl)-2,2-difluoroacetamide] was tested. Which IC50 did it give?
Answer: The IC50 was less than 50 nM.

Question: For `O=C(N[C@H](CN1CCCC1)[C@H](O)c1ccc2c(c1)OCCO2)C(F)(F)CCc1ccc2cc(F)ccc2c1` [Compound 84, N-((1R,2R)-1-(2,3-dihydrobenzo[b][1,4]dioxin-6-yl)-1-hydroxy-3-(pyrrolidin-1-yl)propan-2-yl)-2,2-difluoro-4-(6-fluoronaphthalen-2-yl)butanamide], which IC50 is on record?
Answer: The IC50 was less than 50 nM.

Question: With `O=C(N[C@H](CN1CCCC1)[C@H](O)c1ccc(OCC(F)(F)F)nc1)C(F)(F)c1cc2cc(Cl)ccc2o1` [Compound 85, 2-(5-chlorobenzofuran-2-yl)-2,2-difluoro-N-((1R,2R)-1-hydroxy-3-(pyrrolidin-1-yl)-1-(6-(2,2,2-trifluoroethoxy)pyridin-3-yl)propan-2-yl)acetamide] as the molecule, how does the IC50 read?
Answer: Its IC50 is less than 50 nM.

Question: For `O=C(N[C@H](CN1CCC1)[C@H](O)c1cc(F)c2c(c1)OCCO2)C(F)(F)CCc1ccc2cc(F)ccc2c1` [Compound 86, N-((1R,2R)-3-(azetidin-1-yl)-1-(8-fluoro-2,3-dihydrobenzo[b][1,4]dioxin-6-yl)-1-hydroxypropan-2-yl)-2,2-difluoro-4-(6-fluoronaphthalen-2-yl)butanamide], which IC50 is on record?
Answer: Its IC50 is less than 50 nM.

Question: For `O=C(N[C@H](CN1CCCC1)[C@H](O)c1cc(F)c2c(c1)OCCO2)C(F)(F)CCc1ccc2cc(F)ccc2c1` [Compound 87, 2,2-difluoro-N-((1R,2R)-1-(8-fluoro-2,3-dihydrobenzo[b][1,4]dioxin-6-yl)-1-hydroxy-3-(pyrrolidin-1-yl)propan-2-yl)-4-(6-fluoronaphthalen-2-yl)butanamide], which IC50 is on record?
Answer: The IC50 was less than 50 nM.

Question: For `O=C(N[C@H](CN1CCC1)[C@H](O)c1cc(F)c2c(c1)OCCO2)C(=O)c1cc2cc(Cl)ccc2o1` [Compound 89, N-((1R,2R)-3-(azetidin-1-yl)-1-(8-fluoro-2,3-dihydrobenzo[b][1,4]dioxin-6-yl)-1-hydroxypropan-2-yl)-2-(5-chlorobenzofuran-2-yl)-2-oxoacetamide], which IC50 is on record?
Answer: The IC50 was less than 50 nM.

Question: How did the IC50 turn out when `O=C(CCc1ccc2cc(F)ccc2c1)C(=O)N[C@H](CN1CCCC1)[C@H](O)c1ccc2c(c1)OCCO2` [Compound 90, N-((1R,2R)-1-(2,3-dihydrobenzo[b][1,4]dioxin-6-yl)-1-hydroxy-3-(pyrrolidin-1-yl)propan-2-yl)-4-(6-fluoronaphthalen-2-yl)-2-oxobutanamide] was run?
Answer: The IC50 was less than 50 nM.

Question: With `O=C(N[C@H](CN1CCC1)[C@H](O)c1cc(F)c2c(c1)OCCO2)C(F)(F)C1Cc2ccc(Cl)cc2C1` (stereo partly drawn) [Compound 92, N-((1R,2R)-3-(azetidin-1-yl)-1-(8-fluoro-2,3-dihydrobenzo[b][1,4]dioxin-6-yl)-1-hydroxypropan-2-yl)-2-(5-chloro-2,3-dihydro-1H-inden-2-yl)-2,2-difluoroacetamide] as the molecule, how does the IC50 read?
Answer: Its IC50 is less than 50 nM.

Question: Which IC50 does the source give for `O=C(N[C@H](CN1CCCC1)[C@H](O)c1cc(F)c2c(c1)OCCO2)C(F)(F)C1Cc2ccc(Cl)cc2C1` (stereo partly drawn) [Compound 93, 2-(5-chloro-2,3-dihydro-1H-inden-2-yl)-2,2-difluoro-N-((1R,2R)-1-(8-fluoro-2,3-dihydrobenzo[b][1,4]dioxin-6-yl)-1-hydroxy-3-(pyrrolidin-1-yl)propan-2-yl)acetamide] here?
Answer: The IC50 was less than 50 nM.

Question: How did the IC50 turn out when `CC(C)Oc1ccc([C@@H](O)[C@@H](CN2CCCC2)NC(=O)C(F)(F)c2cc3cc(Cl)ccc3o2)cc1Cl` [Compound 94, N-((1R,2R)-1-(3-chloro-4-isopropoxyphenyl)-1-hydroxy-3-(pyrrolidin-1-yl)propan-2-yl)-2-(5-chlorobenzofuran-2-yl)-2,2-difluoroacetamide] was run?
Answer: Its IC50 is less than 50 nM.

Question: With `O=C(N[C@H](CN1CCCC1)[C@H](O)c1cc(F)c2c(c1)OCCO2)C(=O)c1cc2cc(Cl)ccc2o1` [Compound 95, 2-(5-chlorobenzofuran-2-yl)-N-((1R,2R)-1-(8-fluoro-2,3-dihydrobenzo[b][1,4]dioxin-6-yl)-1-hydroxy-3-(pyrrolidin-1-yl)propan-2-yl)-2-oxoacetamide] as the molecule, how does the IC50 read?
Answer: Its IC50 is less than 50 nM.

Question: With `O=C(N[C@H](CN1CCC1)[C@H](O)c1cc(F)c2c(c1)OCCO2)C(=NO)c1cc2cc(Cl)ccc2o1` [Compound 98, N-((1R,2R)-3-(azetidin-1-yl)-1-(8-fluoro-2,3-dihydrobenzo[b][1,4]dioxin-6-yl)-1-hydroxypropan-2-yl)-2-(5-chlorobenzofuran-2-yl)-2-(hydroxyimino)acetamide] as the molecule, how does the IC50 read?
Answer: Its IC50 is less than 50 nM.

Question: With `O=C(N[C@H](CN1CCCC1)[C@H](O)c1ccc(OC2CC2)nc1)C(F)(F)c1cc2cc(Cl)ccc2o1` [Compound 99, 2-(5-chlorobenzofuran-2-yl)-N-((1R,2R)-1-(6-cyclopropoxypyridin-3-yl)-1-hydroxy-3-(pyrrolidin-1-yl)propan-2-yl)-2,2-difluoroacetamide] as the molecule, how does the IC50 read?
Answer: Its IC50 is less than 50 nM.

Question: Which IC50 does the source give for `O=C(N[C@H](CN1CCCC1)[C@H](O)c1ccc(OC2CC2)nc1)C(F)(F)CCc1ccc2cc(F)ccc2c1` [Compound 101, N-((1R,2R)-1-(6-cyclopropoxypyridin-3-yl)-1-hydroxy-3-(pyrrolidin-1-yl)propan-2-yl)-2,2-difluoro-4-(6-fluoronaphthalen-2-yl)butanamide] here?
Answer: Its IC50 is less than 50 nM.

Question: How did the IC50 turn out when `CC1CN(C[C@@H](NC(=O)/C(=N/O)c2cc3cc(Cl)ccc3o2)[C@H](O)c2ccc3c(c2)OCCO3)C1` [Compound 102, (E)-2-(5-chlorobenzofuran-2-yl)-N-((1R,2R)-1-(2,3-dihydrobenzo[b][1,4]dioxin-6-yl)-1-hydroxy-3-(3-methylazetidin-1-yl)propan-2-yl)-2-(hydroxyimino)acetamide] was run?
Answer: Its IC50 is less than 50 nM.

Question: Which IC50 does the source give for `O=C(N[C@H](CN1CCCC1)[C@H](O)c1cc(F)c2c(c1)OCCO2)/C(=N/O)c1cc2cc(Cl)ccc2o1` [Compound 104, (E)-2-(5-chlorobenzofuran-2-yl)-N-((1R,2R)-1-(8-fluoro-2,3-dihydrobenzo[b][1,4]dioxin-6-yl)-1-hydroxy-3-(pyrrolidin-1-yl)propan-2-yl)-2-(hydroxyimino)acetamide] here?
Answer: The IC50 was less than 50 nM.

Question: With `O=C(N[C@H](CN1CCCC1)[C@H](O)c1ccc(OC2CCOCC2)c(Cl)c1)C(F)(F)c1cc2cc(Cl)ccc2o1` [Compound 105, N-((1R,2R)-1-(3-chloro-4-((tetrahydro-2H-pyran-4-yl)oxy)phenyl)-1-hydroxy-3-(pyrrolidin-1-yl)propan-2-yl)-2-(5-chlorobenzofuran-2-yl)-2,2-difluoroacetamide] as the molecule, how does the IC50 read?
Answer: The IC50 was less than 50 nM.

Question: How did the IC50 turn out when `O=C(N[C@H](CN1CCCC1)[C@H](O)c1ccc2c(c1)OCCO2)/C(CCc1ccc2cc(F)ccc2c1)=N/O` [Compound 106, (E)-N-((1R,2R)-1-(2,3-dihydrobenzo[b][1,4]dioxin-6-yl)-1-hydroxy-3-(pyrrolidin-1-yl)propan-2-yl)-4-(6-fluoronaphthalen-2-yl)-2-(hydroxyimino)butanamide] was run?
Answer: The IC50 was less than 50 nM.

Question: For `CC(C)Oc1ccc([C@@H](O)[C@@H](CN2CCCC2)NC(=O)C(F)(F)CCc2ccc3ccccc3c2)cn1` [Compound 107, 2,2-difluoro-N-((1R,2R)-1-hydroxy-1-(6-isopropoxypyridin-3-yl)-3-(pyrrolidin-1-yl)propan-2-yl)-4-(naphthalen-2-yl)butanamide], which IC50 is on record?
Answer: Its IC50 is less than 50 nM.

From patent US10227323B2, “Glucosylceramide synthase inhibitors for the treatment of diseases” (BIOMARIN PHARMACEUTICAL INC., priority 2013, dated 2019)
